Measured values published in US8293742B2, “Preferential vasoconstriction compositions and methods of use” (Alpha Synergy Development, Inc., priority 2008, dated 2012).

Experiments:
[1] = system: postoperative hyperemia and conjunctival hemorrhage; assay: Lasik prophylaxis (Example 2); conditions: brimonidine 0.02%
red eye condition = assay: Red eye study, brimonidine vs VISINE Original, cumulative red scores (Example 4); type: in vivo, human; conditions: three week scores, brimonidine at […]
Experimental: The patients were assigned “cumulative red scores” , prior to each administration (as baseline) and then 10 min after each dose, by dividing the bulbar conjunctiva into six sectors, each scored with a grade 1-3 score and the total cumulative score.

[2] = system: eyes of a patient with an ocular condition; conditions: brimonidine 0.01-[…] (left eye) compared with tetrahydrozoline 0.05%, oxymetazoline […], naphazoline […] (right eye); baseline redness 4/4
Excerpt: In an average clinical situation, baseline redness is at 1-1.5/4.

chronic red eyes = assay: Chronic red eyes, eld brimonidine vs Naphcon-A, patient satisfaction assessment (Example 5); type: in vivo, human; conditions: brimonidine at […], drops twice a day for three to five weeks, seven patients
Experimental: The treatment was through drops twice a day for three to five weeks. At the end, patient satisfaction assessment was conducted.

rebound hyperemia = assay: Reversal of pre-induced rebound hyperemia (FIGS. 5A-C); type: in vivo, human; conditions: right eye, brimonidine at […] after VISINE Original
Excerpt: FIG. 5A is a baseline visual appearance of two eyes of a patient with an ocular condition.

[3] = system: vasoconstriction, rebound hyperemia, intraocular pressure, corneal endothelial cell pump; conditions: FIG. 2

## Brc1c(N=C2NCCN2)ccc2nccnc12.O=C(O)C(O)C(O)C(=O)O [brimonidine, 5-bromo-6-(2-imidazolidinylideneamino)quinoxaline L-tartrate]
[1]
  cosmetic appearance from day 1 vs. no vasoconstrictor and vs. Naphcon-A: much improved
[1]; group expanded to over 500 eyes
  eye appearance after Lasik: white quiet eye is noted in most patients
Red eye condition
  average redness count after administration (went down to): 1.6
[2]
  scleral whitening brightening effects: significant scleral whitening brightening effects
Chronic red eyes
  patient-reported redness: All patients reported reduced redness
Rebound hyperemia
  reversal of induced rebound hyperemia: reversing the VISINE Original® induced rebound hyperemia
[3]
  concentration at which intraocular pressure reduction and corneal endothelial cell pump inhibition are just at their maximum: about 0.09%
[3]; vasoconstrictive effect remains largely unchanged
  concentration below which intraocular pressure reduction and endothelial cell pump inhibition drop off exponentially: below 0.08%
